Measurements taken from patent publication US12398107B2, “Fungicidal nitroanilino substituted pyrazoles” (FMC Corporation, priority 2018, dated 2025).

Assays:
Type in all cases: in vivo
Alternaria solani = assay: Test F: tomato early blight, preventive spray on tomato seedlings; conditions: 50 ppm, 100 = 100% disease control, 0 = no control
From the text: (§1) General protocol for preparing test suspensions for Tests A-F: the test compounds were first dissolved in acetone in an amount equal to 3% of the final volume and then suspended at the desired concentration (in ppm) in acetone and purified water (50/50 mix by volume) containing 250 ppm of the surfactant PEG400 (polyhydric alcohol esters). The resulting test suspensions were then used in Tests A-F. The test suspension was sprayed to the point of run-off on tomato seedlings. The following day the seedlings were inoculated with a spore suspension of Alternaria solani (the causal agent of tomato early blight) and incubated in a saturated atmosphere at 27° C. for 48 h, and then moved to a growth chamber at 20° C. for 3 days, after which time visual disease ratings were made. A rating of 100 indicates 100% disease control and a rating of 0 indicates no disease control (relative to the controls). A dash (-) indicates the compound was not tested.

Septoria tritici = assay: Test A: wheat leaf blotch, preventive spray on wheat seedlings; conditions: 50 ppm, 100 = 100% disease control, 0 = no control relative to controls
From the text: (§2) General protocol for preparing test suspensions for Tests A-F: the test compounds were first dissolved in acetone in an amount equal to 3% of the final volume and then suspended at the desired concentration (in ppm) in acetone and purified water (50/50 mix by volume) containing 250 ppm of the surfactant PEG400 (polyhydric alcohol esters). The resulting test suspensions were then used in Tests A-F. The test solution was sprayed to the point of run-off on wheat seedlings. The following day the seedlings were inoculated with a spore suspension of Septoria tritici (the causal agent of wheat leaf blotch) and incubated in a saturated atmosphere at 24° C. for 48 h, and then moved to a growth chamber at 20° C. for 17 days, after which time disease ratings were made. A rating of 100 indicates 100% disease control and a rating of 0 indicates no disease control (relative to the controls). A dash (-) indicates the compound was not tested.

[1] = test system: Puccinia recondita f. sp. tritici; assay: Test B: wheat leaf rust, preventive spray on wheat seedlings; conditions: 50 ppm, 100 = 100% disease control, 0 = no control relative to controls
From the text: as §2, with “Puccinia recondita f. sp.” for “Septoria”, “rust)” for “blotch)”, “20°” for “24°”, “24” for “48”, “7” for “17”

[2] = test system: Blumeria graminis f. sp. tritici; assay: Test C: wheat powdery mildew, preventive spray on wheat seedlings; conditions: 50 ppm, rated after 8 days, 100 = 100% disease control, 0 = no control
From the text: as §1, with “on wheat” for “on tomato”, “spore dust” for “spore suspension”, “of Blumeria graminis f. sp. tritici, (also known as Erysiphe graminis f. sp. tritici, the” for “of Alternaria solani (the”, “of wheat powdery mildew)” for “of tomato early blight)”, “in” for “in a saturated atmosphere at 27° C. for 48 h, and then moved to”, “for 8” for “for 3”

Botrytis cinerea = assay: Test E: tomato Botrytis, preventive spray on tomato seedlings; conditions: 50 ppm, 100 = 100% disease control, 0 = no control
From the text: as §1, with “Botrytis cinerea” for “Alternaria solani”, “Botrytis)” for “early blight)”, “20°” for “27°”, “24°” for “20°”

Phakopsora pachyrhizi = assay: Test D: Asian soybean rust, preventive spray on soybean seedlings; conditions: 50 ppm, 100 = 100% disease control, 0 = no control
From the text: General protocol for preparing test suspensions for Tests A-F: the test compounds were first dissolved in acetone in an amount equal to 3% of the final volume and then suspended at the desired concentration (in ppm) in acetone and purified water (50/50 mix by volume) containing 250 ppm of the surfactant PEG400 (polyhydric alcohol esters). The resulting test suspensions were then used in Tests A-F.
The test solution was sprayed to the point of run-off on soybean seedlings. The following day the seedlings were inoculated with a spore suspension of Phakopsora pachyrhizi (the causal agent of Asian soybean rust) and incubated in a saturated atmosphere at 22° C. for 24 h and then moved to a growth chamber at 22° C. for 8 days, after which time visual disease ratings were made.
A rating of 100 indicates 100% disease control and a rating of 0 indicates no disease control (relative to the controls). A dash (-) indicates the compound was not tested.

Row | SMILES | Test F disease control rating (tomato early blight) (Alternaria solani) [%] | Test A disease control rating (wheat leaf blotch) (Septoria tritici) [%] | Test B disease control rating (wheat leaf rust) [1] [%] | Test C disease control rating (wheat powdery mildew) [2] [%] | Test E disease control rating (tomato Botrytis) (Botrytis cinerea) [%] | Test D disease control rating (Asian soybean rust) (Phakopsora pachyrhizi) [%]
1 | Cc1cccc([N+](=O)[O-])c1Nc1c(-c2ccc(F)cc2F)c(C)nn1C [Compound 177] | 9 | 100 | 97 | 50 | 100 | 0
2 | Cc1nn(C)c(Nc2ccc(F)cc2[N+](=O)[O-])c1-c1c(Cl)cccc1Cl [Compound 54] | 0 | 100 | 91 | 93 | 21 | 0
3 | Cc1cc(Cl)c(Nc2c(-c3ccc(C#N)cc3Cl)c(C)nn2C)c([N+](=O)[O-])c1 [Compound 156] | 0 | 91 | 91 | 66 | 0 | 0
4 | CCc1nn(C)c(Nc2c(F)cccc2[N+](=O)[O-])c1-c1c(F)cc(Cl)cc1F [Compound 170] | 99 | 100 | 99 | 99 | 100 | 0
5 | Cc1nn(C)c(Nc2c(Cl)cccc2[N+](=O)[O-])c1-c1c(F)cc(F)cc1Br [Compound 163] | 76 | 99 | 100 | 98 | 88 | 78
6 | COc1cc(F)c(-c2c(C)nn(C)c2Nc2ccc(OC)cc2[N+](=O)[O-])c(F)c1 [Compound 161] | 99 | 100 | 100 | 100 | 100 | 0
7 | Cc1nn(C)c(Nc2ccccc2[N+](=O)[O-])c1-c1c(F)cc(F)cc1Cl [Compound 148] | 100 | 100 | 99 | 98 | 99 | 13
8 | COc1cc(F)c(Nc2c(-c3ccc(F)cc3Cl)c(C)nn2C)c([N+](=O)[O-])c1 [Compound 85] | 98 | 100 | 100 | 97 | 94 | 96
9 | COc1ccc(Nc2c(-c3ccc(C#N)cc3Br)c(C)nn2C)c([N+](=O)[O-])c1 [Compound 180] | 98 | 100 | 98 | 79 | 99 | 0
10 | COc1cc(F)c(-c2c(C)nn(C)c2Nc2c(F)cc(Cl)cc2[N+](=O)[O-])c(F)c1 [Compound 86] | 99 | 100 | 100 | 98 | 96 | 77
11 | COc1ccc(Nc2c(-c3c(F)cccc3F)c(C)nn2C)c([N+](=O)[O-])c1 [Compound 87] | 93 | – | 99 | 98 | 98 | 0
12 | Cc1ccc(Nc2c(-c3ccc(F)cc3F)c(C)nn2C)c([N+](=O)[O-])c1 [Compound 107] | 0 | – | 91 | 61 | 98 | 0
13 | COc1ccc(Nc2c(-c3ccc(F)cc3F)c(C)nn2C)c([N+](=O)[O-])c1 [Compound 88] | 9 | – | 97 | 84 | 99 | 0
14 | Cc1ccc(Nc2c(-c3c(F)cc(F)cc3Cl)c(C)nn2C)c([N+](=O)[O-])c1 [Compound 106] | 68 | – | 100 | 98 | 99 | 0
15 | COc1ccc(Nc2c(-c3c(F)cc(F)cc3Cl)c(C)nn2C)c([N+](=O)[O-])c1 [Compound 89] | 99 | – | 100 | 99 | 99 | 80
16 | COCc1ccc(Nc2c(-c3ccc(F)cc3Cl)c(C)nn2C)c([N+](=O)[O-])c1 [Compound 4] | 0 | – | 86 | 76 | 74 | 0
17 | CCc1ccc(Nc2c(-c3ccc(F)cc3Cl)c(C)nn2C)c([N+](=O)[O-])c1 [Compound 6] | 0 | – | 74 | 27 | 55 | 0
